From patent US9593112B2, “Substituted pyrazolylpyrazole derivative and use of same as herbicide” (KYOYU AGRI CO., LTD., priority 2013, dated 2017)

Tests used:
Rice plants = test: Paddy herbicidal activity test, phytotoxicity to transplanted rice; format: in vivo; conditions: rice transplanted at 2.0 leaf stage, 30 days
Procedure: (§1) Rice paddy soil was filled into a 1/10000 are pot followed by the addition of suitable amounts of water and chemical fertilizer, kneading, seeding with Echinochloa crus-galli, Monochoria vaginalis and Scirpus juncoides and maintaining in an irrigated state at a water depth of 3 cm.
(§2) Wettable powder of Target Compound (I) shown in Table 1 prepared in compliance with the preparation examples were diluted with a suitable amount of water, rice plants in the 2.0 leaf stage were transplanted during 3.5 leaf stage of Echinochloa crus-galli, and treated by dropping in chemical in the prescribed amount per are using a pipette.
(§3) After treating for 30 days in a glass greenhouse at an average atmospheric temperature of 30° C., the herbicidal efficacy thereof was investigated.
(§4) Evaluation of herbicidal efficacy was carried out by comparing growth inhibition rate (%) with an untreated group, while evaluation of phytotoxicity was carried out by comparing growth inhibition rate (%) with the state of a complete eradication group, and were evaluated at 11 levels indicated below.

Chenopodium album [1] = test: Weed foliar treatment test; format: in vivo; conditions: foliar spray, 3 weeks
Procedure: (§5) Soil was filled into a 1/6000 are pot followed by seeding with Digitaria ciliaris, Chenopodium album and Amaranthus retroflexus, covering with soil, and cultivating in a glass greenhouse at an average atmospheric temperature of 25° C.
(§6) Wettable powder of Target Compound (I) shown in Table 1 prepared in compliance with the preparation examples were diluted with water to the prescribed amount of chemical and uniformly sprayed onto the weeds using 15 liters of sprayed water per are when Digitaria ciliaris had grown to the 1.0 to 2.0 leaf stage.
(§7) After treating for 3 weeks in a glass greenhouse at an average atmospheric temperature of 25° C., the herbicidal efficacy thereof was investigated.
(§8) Evaluation of herbicidal efficacy was carried out in the same manner as the above-mentioned Test Example 1.

Digitaria ciliaris [2] = test: Weed foliar treatment test; format: in vivo; conditions: foliar spray at 1.0 to 2.0 leaf stage of Digitaria ciliaris, 3 weeks
Procedure: as §5, §6, §7, §8

Amaranthus retroflexus [3] = test: Weed foliar treatment test; format: in vivo; conditions: foliar spray, 3 weeks
Procedure: as §5, §6, §7, §8

Chenopodium album [4] = test: Farming soil treatment test; format: in vivo; conditions: soil surface spray prior to weed growth, 30 days
Procedure: (§9) Field soil was filled into a 1/6000 are pot followed by seeding with Digitaria ciliaris, Chenopodium album and Amaranthus retroflexus and covering with soil.
(§10) Wettable powder of Target Compound (I) shown in Table 1 prepared in compliance with the preparation examples were diluted with water to the prescribed amount of chemical and uniformly sprayed onto each soil surface layer using 10 liters of sprayed water per are prior to weed growth following seeding.
as §3, §8

Digitaria ciliaris [5] = test: Farming soil treatment test; format: in vivo; conditions: soil surface spray prior to weed growth, 30 days
Procedure: as §9, §10, §3, §8

Amaranthus retroflexus [6] = test: Farming soil treatment test; format: in vivo; conditions: soil surface spray prior to weed growth, 30 days
Procedure: as §9, §10, §3, §8

Echinochloa crus-galli = test: Paddy herbicidal activity test; format: in vivo; conditions: irrigated paddy pot, treated at 3.5 leaf stage of Echinochloa crus-galli, 30 days
Procedure: as §1, §2, §3, §4

Scirpus juncoides = test: Paddy herbicidal activity test; format: in vivo; conditions: irrigated paddy pot, 30 days
Procedure: as §1, §2, §3, §4

Monochoria vaginalis = test: Paddy herbicidal activity test; format: in vivo; conditions: irrigated paddy pot, 30 days
Procedure: as §1, §2, §3, §4

C#CCNc1c(C#N)cnn1-c1nn2c(c1Cl)CCCC2 [4.85, 4.156]
phytotoxicity (growth inhibition level) Rice plants (Rice plants; 1 g a.i./10 a): 2 (2: 20% to less than 30%) | phytotoxicity (growth inhibition level) Rice plants (Rice plants; 5 g a.i./10 a): 2 (2: 20% to less than 30%) | herbicidal efficacy (growth inhibition level) Chenopodium album (Chenopodium album [1]; 5 g a.i./10 a): 5 (5: 50% to less than 60%) | herbicidal efficacy (growth inhibition level) Chenopodium album (Chenopodium album [1]; 10 g a.i./10 a): 6 (6: 60% to less than 70%) | herbicidal efficacy (growth inhibition level) Digitaria ciliaris (Digitaria ciliaris [2]; 5 g a.i./10 a): 3 (3: 30% to less than 40%) | herbicidal efficacy (growth inhibition level) Digitaria ciliaris (Digitaria ciliaris [2]; 10 g a.i./10 a): 5 (5: 50% to less than 60%) | herbicidal efficacy (growth inhibition level) Amaranthus retroflexus (Amaranthus retroflexus [3]; 5 g a.i./10 a): 4 (4: 40% to less than 50%) | herbicidal efficacy (growth inhibition level) Amaranthus retroflexus (Amaranthus retroflexus [3]; 10 g a.i./10 a): 6 (6: 60% to less than 70%) | herbicidal efficacy (growth inhibition level) Chenopodium album (Chenopodium album [4]; 5 g a.i./10 a): 4 (4: 40% to less than 50%) | herbicidal efficacy (growth inhibition level) Chenopodium album (Chenopodium album [4]; 10 g a.i./10 a): 5 (5: 50% to less than 60%) | herbicidal efficacy (growth inhibition level) Digitaria ciliaris (Digitaria ciliaris [5]; 5 g a.i./10 a): 3 (3: 30% to less than 40%) | herbicidal efficacy (growth inhibition level) Digitaria ciliaris (Digitaria ciliaris [5]; 10 g a.i./10 a): 4 (4: 40% to less than 50%) | herbicidal efficacy (growth inhibition level) Amaranthus retroflexus (Amaranthus retroflexus [6]; 5 g a.i./10 a): 3 (3: 30% to less than 40%) | herbicidal efficacy (growth inhibition level) Amaranthus retroflexus (Amaranthus retroflexus [6]; 10 g a.i./10 a): 6 (6: 60% to less than 70%) | herbicidal efficacy (growth inhibition level) Echinochloa crus-galli (Echinochloa crus-galli; 1 g a.i./10 a): 2 (2: 20% to less than 30%) | herbicidal efficacy (growth inhibition level) Echinochloa crus-galli (Echinochloa crus-galli; 5 g a.i./10 a): 3 (3: 30% to less than 40%) | herbicidal efficacy (growth inhibition level) Scirpus juncoides (Scirpus juncoides; 1 g a.i./10 a): 0 (0 (exponent): 0% to less than 10% (growth inhibition rate)) | herbicidal efficacy (growth inhibition level) Scirpus juncoides (Scirpus juncoides; 5 g a.i./10 a): 1 (1: 10% to less than 20%) | herbicidal efficacy (growth inhibition level) Monochoria vaginalis (Monochoria vaginalis; 1 g a.i./10 a): 1 (1: 10% to less than 20%) | herbicidal efficacy (growth inhibition level) Monochoria vaginalis (Monochoria vaginalis; 5 g a.i./10 a): 3 (3: 30% to less than 40%)

CC#CCNc1c(C#N)cnn1-c1nn2c(c1Cl)CCCC2 [4.131, 4.132]
phytotoxicity (growth inhibition level) Rice plants (Rice plants; 1 g a.i./10 a): 1 (1: 10% to less than 20%) | phytotoxicity (growth inhibition level) Rice plants (Rice plants; 5 g a.i./10 a): 1 (1: 10% to less than 20%) | herbicidal efficacy (growth inhibition level) Chenopodium album (Chenopodium album [1]; 5 g a.i./10 a): 4 (4: 40% to less than 50%) | herbicidal efficacy (growth inhibition level) Chenopodium album (Chenopodium album [1]; 10 g a.i./10 a): 5 (5: 50% to less than 60%) | herbicidal efficacy (growth inhibition level) Digitaria ciliaris (Digitaria ciliaris [2]; 5 g a.i./10 a): 3 (3: 30% to less than 40%) | herbicidal efficacy (growth inhibition level) Digitaria ciliaris (Digitaria ciliaris [2]; 10 g a.i./10 a): 4 (4: 40% to less than 50%) | herbicidal efficacy (growth inhibition level) Amaranthus retroflexus (Amaranthus retroflexus [3]; 5 g a.i./10 a): 4 (4: 40% to less than 50%) | herbicidal efficacy (growth inhibition level) Amaranthus retroflexus (Amaranthus retroflexus [3]; 10 g a.i./10 a): 6 (6: 60% to less than 70%) | herbicidal efficacy (growth inhibition level) Chenopodium album (Chenopodium album [4]; 5 g a.i./10 a): 3 (3: 30% to less than 40%) | herbicidal efficacy (growth inhibition level) Chenopodium album (Chenopodium album [4]; 10 g a.i./10 a): 4 (4: 40% to less than 50%) | herbicidal efficacy (growth inhibition level) Digitaria ciliaris (Digitaria ciliaris [5]; 5 g a.i./10 a): 3 (3: 30% to less than 40%) | herbicidal efficacy (growth inhibition level) Digitaria ciliaris (Digitaria ciliaris [5]; 10 g a.i./10 a): 4 (4: 40% to less than 50%) | herbicidal efficacy (growth inhibition level) Amaranthus retroflexus (Amaranthus retroflexus [6]; 5 g a.i./10 a): 4 (4: 40% to less than 50%) | herbicidal efficacy (growth inhibition level) Amaranthus retroflexus (Amaranthus retroflexus [6]; 10 g a.i./10 a): 5 (5: 50% to less than 60%) | herbicidal efficacy (growth inhibition level) Echinochloa crus-galli (Echinochloa crus-galli; 1 g a.i./10 a): 3 (3: 30% to less than 40%) | herbicidal efficacy (growth inhibition level) Echinochloa crus-galli (Echinochloa crus-galli; 5 g a.i./10 a): 4 (4: 40% to less than 50%) | herbicidal efficacy (growth inhibition level) Scirpus juncoides (Scirpus juncoides; 1 g a.i./10 a): 1 (1: 10% to less than 20%) | herbicidal efficacy (growth inhibition level) Scirpus juncoides (Scirpus juncoides; 5 g a.i./10 a): 3 (3: 30% to less than 40%) | herbicidal efficacy (growth inhibition level) Monochoria vaginalis (Monochoria vaginalis; 1 g a.i./10 a): 0 (0 (exponent): 0% to less than 10% (growth inhibition rate)) | herbicidal efficacy (growth inhibition level) Monochoria vaginalis (Monochoria vaginalis; 5 g a.i./10 a): 1 (1: 10% to less than 20%)

C#CCCNc1c(C#N)cnn1-c1nn2c(c1Cl)CCCC2 [Compound 1, 1-(3-chloro-4,5,6,7-tetrahydropyrazolo[1,5-a]pyridin-2-yl)-5-(but-3-ynylamino)pyrazole-4-carbonitrile]
phytotoxicity (growth inhibition level) Rice plants (Rice plants; 1 g a.i./10 a): 0 (0 (exponent): 0% to less than 10% (growth inhibition rate)) | phytotoxicity (growth inhibition level) Rice plants (Rice plants; 5 g a.i./10 a): 1 (1: 10% to less than 20%) | herbicidal efficacy (growth inhibition level) Chenopodium album (Chenopodium album [1]; 5 g a.i./10 a): 10 (10: 100%) | herbicidal efficacy (growth inhibition level) Chenopodium album (Chenopodium album [1]; 10 g a.i./10 a): 10 (10: 100%) | herbicidal efficacy (growth inhibition level) Digitaria ciliaris (Digitaria ciliaris [2]; 5 g a.i./10 a): 10 (10: 100%) | herbicidal efficacy (growth inhibition level) Digitaria ciliaris (Digitaria ciliaris [2]; 10 g a.i./10 a): 10 (10: 100%) | herbicidal efficacy (growth inhibition level) Amaranthus retroflexus (Amaranthus retroflexus [3]; 5 g a.i./10 a): 10 (10: 100%) | herbicidal efficacy (growth inhibition level) Amaranthus retroflexus (Amaranthus retroflexus [3]; 10 g a.i./10 a): 10 (10: 100%) | melting point: 130 to 131 °C | herbicidal efficacy (growth inhibition level) Chenopodium album (Chenopodium album [4]; 5 g a.i./10 a): 10 (10: 100%) | herbicidal efficacy (growth inhibition level) Chenopodium album (Chenopodium album [4]; 10 g a.i./10 a): 10 (10: 100%) | herbicidal efficacy (growth inhibition level) Digitaria ciliaris (Digitaria ciliaris [5]; 5 g a.i./10 a): 10 (10: 100%) | herbicidal efficacy (growth inhibition level) Digitaria ciliaris (Digitaria ciliaris [5]; 10 g a.i./10 a): 10 (10: 100%) | herbicidal efficacy (growth inhibition level) Amaranthus retroflexus (Amaranthus retroflexus [6]; 5 g a.i./10 a): 10 (10: 100%) | herbicidal efficacy (growth inhibition level) Amaranthus retroflexus (Amaranthus retroflexus [6]; 10 g a.i./10 a): 10 (10: 100%) | herbicidal efficacy (growth inhibition level) Echinochloa crus-galli (Echinochloa crus-galli; 1 g a.i./10 a): 9 (9: 90% to less than 100%) | herbicidal efficacy (growth inhibition level) Echinochloa crus-galli (Echinochloa crus-galli; 5 g a.i./10 a): 10 (10: 100%) | herbicidal efficacy (growth inhibition level) Scirpus juncoides (Scirpus juncoides; 1 g a.i./10 a): 8 (8: 80% to less than 90%) | herbicidal efficacy (growth inhibition level) Scirpus juncoides (Scirpus juncoides; 5 g a.i./10 a): 10 (10: 100%) | herbicidal efficacy (growth inhibition level) Monochoria vaginalis (Monochoria vaginalis; 1 g a.i./10 a): 9 (9: 90% to less than 100%) | herbicidal efficacy (growth inhibition level) Monochoria vaginalis (Monochoria vaginalis; 5 g a.i./10 a): 10 (10: 100%)

C#CCN(C)c1c(C#N)cnn1-c1nn2c(c1Cl)CCCC2 [Compound 4.73, 1-(3-chloro-4,5,6,7-tetrahydropyrazolo[1,5-a]pyridin-2-yl)-5-[methyl(prop-2-ynyl)amino]pyrazole-4-carbonitrile]
phytotoxicity (growth inhibition level) Rice plants (Rice plants; 1 g a.i./10 a): 0 (0 (exponent): 0% to less than 10% (growth inhibition rate)) | phytotoxicity (growth inhibition level) Rice plants (Rice plants; 5 g a.i./10 a): 1 (1: 10% to less than 20%) | herbicidal efficacy (growth inhibition level) Chenopodium album (Chenopodium album [1]; 5 g a.i./10 a): 2 (2: 20% to less than 30%) | herbicidal efficacy (growth inhibition level) Chenopodium album (Chenopodium album [1]; 10 g a.i./10 a): 3 (3: 30% to less than 40%) | herbicidal efficacy (growth inhibition level) Digitaria ciliaris (Digitaria ciliaris [2]; 5 g a.i./10 a): 1 (1: 10% to less than 20%) | herbicidal efficacy (growth inhibition level) Digitaria ciliaris (Digitaria ciliaris [2]; 10 g a.i./10 a): 2 (2: 20% to less than 30%) | herbicidal efficacy (growth inhibition level) Amaranthus retroflexus (Amaranthus retroflexus [3]; 5 g a.i./10 a): 3 (3: 30% to less than 40%) | herbicidal efficacy (growth inhibition level) Amaranthus retroflexus (Amaranthus retroflexus [3]; 10 g a.i./10 a): 3 (3: 30% to less than 40%) | herbicidal efficacy (growth inhibition level) Chenopodium album (Chenopodium album [4]; 5 g a.i./10 a): 1 (1: 10% to less than 20%) | herbicidal efficacy (growth inhibition level) Chenopodium album (Chenopodium album [4]; 10 g a.i./10 a): 2 (2: 20% to less than 30%) | herbicidal efficacy (growth inhibition level) Digitaria ciliaris (Digitaria ciliaris [5]; 5 g a.i./10 a): 0 (0 (exponent): 0% to less than 10% (growth inhibition rate)) | herbicidal efficacy (growth inhibition level) Digitaria ciliaris (Digitaria ciliaris [5]; 10 g a.i./10 a): 1 (1: 10% to less than 20%) | herbicidal efficacy (growth inhibition level) Amaranthus retroflexus (Amaranthus retroflexus [6]; 5 g a.i./10 a): 1 (1: 10% to less than 20%) | herbicidal efficacy (growth inhibition level) Amaranthus retroflexus (Amaranthus retroflexus [6]; 10 g a.i./10 a): 2 (2: 20% to less than 30%) | herbicidal efficacy (growth inhibition level) Echinochloa crus-galli (Echinochloa crus-galli; 1 g a.i./10 a): 2 (2: 20% to less than 30%) | herbicidal efficacy (growth inhibition level) Echinochloa crus-galli (Echinochloa crus-galli; 5 g a.i./10 a): 4 (4: 40% to less than 50%) | herbicidal efficacy (growth inhibition level) Scirpus juncoides (Scirpus juncoides; 1 g a.i./10 a): 0 (0 (exponent): 0% to less than 10% (growth inhibition rate)) | herbicidal efficacy (growth inhibition level) Scirpus juncoides (Scirpus juncoides; 5 g a.i./10 a): 1 (1: 10% to less than 20%) | herbicidal efficacy (growth inhibition level) Monochoria vaginalis (Monochoria vaginalis; 1 g a.i./10 a): 3 (3: 30% to less than 40%) | herbicidal efficacy (growth inhibition level) Monochoria vaginalis (Monochoria vaginalis; 5 g a.i./10 a): 4 (4: 40% to less than 50%)
